Patent publication US20160354373A1, “METHODS OF TREATING ACUTE T CELL LEUKEMIA” (priority 2015, published 2016)

How the values were obtained:
[1] = tested on: Myc expression signatures; settings: AMD3100 or vehicle for 4 days in vitro, OP9 co-culture
Procedure: FIG. 14A is a heat map depicting differentially expressed genes (Myc targets are indicated) in primary mouse T-ALL cells after 4 day culture with OP9 cells in the presence of AMD3100 or vehicle (right; n=3). […] Data represents 3 different experiments, with cells pooled from 1-3 mice per experiment.
Primary mouse T-ALL cells isolated from spleen were maintained on OP9 stromal cells in OptiMEM+GlutaMAX (Invitrogen) supplemented with 10% FBS, 5 ng/ml IL-7, penicillin and streptomycin, and 55 μM (3-mercaptoethanol and passaged every 3-4 days onto a fresh feeder layer. OP9 cells were pre-treated with 7.5 ng/mL mitomycin C (Sigma) to prevent feeder cell division. Mouse ETP T-ALL (Treanor et al., “Interleukin-7 Receptor Mutants Initiate Early T Cell Precursor Leukemia in Murine Thymocyte Progenitors with Multipotent Potential,” J. Exp. Med. 211:701-713 (2014), which is hereby incorporated by reference in its entirety) and a T-ALL cell line generated by ENU mutagenesis carrying a Notch1 PEST domain mutation (G7084 (ins)C7085) were maintained on OP9-DLL4 feeders. […]
Total RNA was extracted from samples using RNeasy Plus Mini Kit (Life Technologies). […] RNA libraries were then sequenced on the Illumina HiSeq 2000 or 2500 using 50 bp single-end reads. […]

[2] = recent clinical trials data; cited from earlier work
[3] = tested on: Notch1-ΔE-IRES-GFP+ T-ALL cells; settings: AMD3465 20 nmol/hour via s.c. osmotic pump vs PBS; two weeks of treatment; started at >5% GFP+ blasts in blood
Source text: After GFP^+ leukemic cells reached 5% of white blood cells, osmotic pumps filled with AMD3465 (20 nmol/hour) or vehicle (PBS) were implanted subcutaneously (s.c.). The graphs show T-ALL cell numbers in the indicated tissues 2 weeks after treatment initiation. Bars represent the mean. […] After leukemia reached 5% of white blood cells, osmotic pumps filled with AMD3465 (25 nmol/hour) or vehicle were implanted s.c. Analysis was 2 weeks after treatment initiation. […] Values represent the mean frequency of hCD45^+ cells+/−SEM. […] Bars represent the mean.
For inhibition of CXCR4 in primary mouse T-ALL, mice were anaesthetized by isoflurane inhalation and implanted subcutaneously with osmotic pumps (model 2002; Alzet) filled with 40 mM AMD3465 (Tocris) or PBS (flow rate 0.5 ul/hour). […] For CXCR4 inhibition in xenografted patient T-ALL, NOD-SCID mice were implanted with osmotic pumps filled with 50 mM AMD3465 or PBS. Mice implanted with osmotic pumps were sacrificed 14 days later for analysis of tumor burden by flow cytometry.
To this end, two cohorts of lethally irradiated mice were transplanted with Notch1-ΔE-IRES-GFP^+ bone marrow progenitor cells, and after >5% peripheral blood lymphocytes constituted GFP^+ leukemic blasts, AMD3465 (20 nmol/hour) or PBS was administered via osmotic pump.

[4] = tested on: primary human T-ALL cells (hCD45+); settings: two weeks
Source text: After GFP^+ leukemic cells reached 5% of white blood cells, osmotic pumps filled with AMD3465 (20 nmol/hour) or vehicle (PBS) were implanted subcutaneously (s.c.). […] After leukemia reached 5% of white blood cells, osmotic pumps filled with AMD3465 (25 nmol/hour) or vehicle were implanted s.c. Analysis was 2 weeks after treatment initiation. […] Values represent the mean frequency of hCD45^+ cells+/−SEM.
For human xenograft studies, NOD-SCID donor mice were used. […] 1-5×10^6 cells patient cells were transplanted into immunodeficient mouse strains via retro-orbital injection. Cells from spleen of these primary recipients were used for experiments.
For CXCR4 inhibition in xenografted patient T-ALL, NOD-SCID mice were implanted with osmotic pumps filled with 50 mM AMD3465 or PBS. Mice implanted with osmotic pumps were sacrificed 14 days later for analysis of tumor burden by flow cytometry.
First, the primary human leukemia cells were expanded in immune-deficient NOD/MrkBomTac-Prkdc^scid (NOD-SCID) hosts for 6 weeks. Subsequently, two million human T-ALL cells were transplanted into secondary NOD-SCID hosts and peripheral blood was monitored for the appearance of human CD45+ (hCD45+) leukemic cells. Once leukemia constituted >5% of white blood cells in blood, treatment began with AMD3465 or vehicle using osmotic pumps. Two weeks later, animals were sacrificed and the leukemia burden was assessed.

Myc [5] = settings: 8 hours after s.c. AMD3465, 2 doses of 25 mg/kg 4 hours apart, vs PBS; wild-type T-ALL
Procedure: Whole cell lysates were prepared in RIPA buffer (50 mM Tris-HCl, 150 mM NaCl, 1% NP-40, 0.25% sodium deoxycholate, 5 mM EDTA) containing complete Mini protease and phosSTOP phosphatase inhibitors (Roche) and resolved by 8% SDS-PAGE gel electrophoresis. Proteins were transferred to nitrocellulose membranes (Bio-Rad) and probed with primary antibodies raised against c-Myc (polyclonal, Cell Signaling Technologies); 0-tubulin (polyclonal, Abcam); and β-actin (clone C4, Santa Cruz Biotechnologies). Following incubation with horseradish peroxidase (HRP)-conjugated anti-mouse or anti-rabbit secondary antibodies (Jackson laboratories), proteins were detected using the SuperSignal West Pico ECL Kit (Thermo Scientific) and exposed to film or imaged using the ChemiDoc MP system (Bio-rad).
For inhibition of CXCR4 in primary mouse T-ALL, mice were anaesthetized by isoflurane inhalation and implanted subcutaneously with osmotic pumps (model 2002; Alzet) filled with 40 mM AMD3465 (Tocris) or PBS (flow rate 0.5 ul/hour).

Myc [6] = settings: 4 days culture on OP9 cells with AMD3465 or vehicle, in vitro
Procedure: (§1) Primary mouse T-ALL cells isolated from spleen were maintained on OP9 stromal cells in OptiMEM+GlutaMAX (Invitrogen) supplemented with 10% FBS, 5 ng/ml IL-7, penicillin and streptomycin, and 55 μM (3-mercaptoethanol and passaged every 3-4 days onto a fresh feeder layer. OP9 cells were pre-treated with 7.5 ng/mL mitomycin C (Sigma) to prevent feeder cell division. Mouse ETP T-ALL (Treanor et al., “Interleukin-7 Receptor Mutants Initiate Early T Cell Precursor Leukemia in Murine Thymocyte Progenitors with Multipotent Potential,” J. Exp. Med. 211:701-713 (2014), which is hereby incorporated by reference in its entirety) and a T-ALL cell line generated by ENU mutagenesis carrying a Notch1 PEST domain mutation (G7084 (ins)C7085) were maintained on OP9-DLL4 feeders. AMD3100 octahydrochloride hydrate (10 ug/mL in water; Sigma), AMD3465 hexahydrobromide (50 ug/mL in water; Tocris or Cayman Chemical) or the corresponding vehicle was added to culture media at the start of the culture period.

[7] = tested on: primary mouse T-ALL cells; settings: MIG-IRES-GFP-cMyc vs control transduced cells; 4 days OP9 co-culture
Procedure: Data represents 1 experiment with 3 replicates per group for each AMD3465 concentration tested. Error bars represent +/−SD.
as §1

| enrichment of genes down-regulated by treatment in Myc DNA binding databases (GSEA) [1] | Structure (SMILES) | absorption [2] | tolerability [2] | leukemia burden across all tissues surveyed (T-ALL cell numbers) [3] | number of hCD45+ cells in blood and spleen ([4]; AMD3465 25 nmol/hour via s.c. osmotic pump vs vehicle, patient 1 and 2 xenografts in NOD-SCID) | T-ALL infiltration of brain, liver and lungs (histo-pathological analysis) ([4]; AMD3465 via osmotic pump vs PBS, patient 1 xenograft) | splenomegaly ([4]; AMD3465 via osmotic pump vs vehicle (PBS), xenografted NOD-SCID mice) | Myc protein levels in T-ALL cells (Myc [5]) | Myc protein expression (MYC-GFP fusion allele) in mouse LIC cells (Myc [6]) | proliferation of T-ALL cells in the presence of AMD3465 upon Myc overexpression [7] |
| --- | --- | --- | --- | --- | --- | --- | --- | --- | --- | --- |
| significant enrichment | c1cc(CN2CCCNCCNCCCNCC2)ccc1CN1CCCNCCNCCCNCC1 [AMD3100, 1,1′-[1,4-phenylenebis(methylene)]bis[1,4,8,11-tetraazacyclotetradecane]] | absorbed quickly | well tolerated |  |  |  |  |  |  |  |
|  | c1ccc(CNCc2ccc(CN3CCCNCCNCCCNCC3)cc2)nc1 [AMD3465, N[1,4,8,11-tetraazacyclotetradecanyl-1,4-phenylene-bis-(methylene)]-2-aminomethyl-pyridine] |  |  | substantial reduction | significantly reduced | virtually leukemia-free | substantially decreased | reduced | Reduced | partially restored |
